According to ChEMBL document CHEMBL4627319, “Novel class of benzimidazole-thiazole hybrids: The privileged scaffolds of potent anti-inflammatory activity with dual inhibition of cyclooxygenase and 15-lipoxygenase enzymes” (Bioorg Med Chem, 2020):

How the values were obtained:
[1] = Inhibition of soybean 15-LOX using arachidonic acid or linoleic acid as substrate preincubated for 5 mins followed by substrate addition and measured after 10 mins by colorimetric assay; set-up: species or system Glycine max
[2] = molecular target: T1, Prostaglandin G/H synthase 1 (Ovis aries, UniProt P05979); experiment: Inhibition of ovine COX1 using arachidonic acid as substrate preincubated for 10 mins followed by substrate addition and measured after 2 mins by EIA
T1 sequence (P05979 whole entry): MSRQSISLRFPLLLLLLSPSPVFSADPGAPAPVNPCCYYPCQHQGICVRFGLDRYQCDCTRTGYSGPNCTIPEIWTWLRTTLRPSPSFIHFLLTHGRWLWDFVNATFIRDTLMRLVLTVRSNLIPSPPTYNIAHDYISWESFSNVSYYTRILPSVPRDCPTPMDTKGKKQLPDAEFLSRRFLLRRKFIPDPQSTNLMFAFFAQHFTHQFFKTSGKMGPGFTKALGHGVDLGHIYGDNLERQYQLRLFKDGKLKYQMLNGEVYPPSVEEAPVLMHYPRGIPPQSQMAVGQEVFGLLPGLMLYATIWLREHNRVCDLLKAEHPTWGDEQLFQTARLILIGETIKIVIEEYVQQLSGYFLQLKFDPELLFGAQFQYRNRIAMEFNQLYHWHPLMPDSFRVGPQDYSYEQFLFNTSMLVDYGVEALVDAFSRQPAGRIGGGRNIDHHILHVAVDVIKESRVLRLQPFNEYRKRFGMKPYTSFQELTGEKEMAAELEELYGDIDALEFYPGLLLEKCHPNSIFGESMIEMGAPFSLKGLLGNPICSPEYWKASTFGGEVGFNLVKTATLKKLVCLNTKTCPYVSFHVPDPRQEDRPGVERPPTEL

Rattus norvegicus [3] = experiment: Anti-inflammatory activity in albino rat assessed as inhibition of carrageenan-induced paw edema at 28 uM/kg, ip measured at 0.5 hrs by calliper method relative to control; type: functional
[4] = Ulcerogenic activity in albino rat assessed as damage of scarred mucosal epithelium at 10 to 50 mg/kg, po measured after 6 hrs by H and E staining based light microscopic assay; type: toxicity, organism-based; conditions: in vivo
[5] = Ulcerogenic activity in albino rat assessed as ulcer formation with distorted gastric gland at 10 to 50 mg/kg, po measured after 6 hrs by H and E staining based light microscopic assay; type: toxicity, organism-based; conditions: in vivo
Rattus norvegicus [6] = experiment: Antiinflammatory activity in albino rat assessed as reduction in carrageenan-induced paw edema by measuring thickness of right paw at 28 uM/kg, ip measured at 2 hrs by calliper method (reference value: 7.67 +/- 0.17 cm); type: functional
Rattus norvegicus [7] = experiment: Anti-inflammatory activity in albino rat assessed as inhibition of carrageenan-induced paw edema at 28 uM/kg, ip measured at 1 hr by calliper method relative to control; type: functional
Rattus norvegicus [8] = experiment: Antiinflammatory activity in albino rat assessed as reduction in carrageenan-induced paw edema by measuring thickness of right paw at 28 uM/kg, ip measured at 4 hrs by calliper method (reference value: 8.50 +/- 0.58 cm); type: functional
[9] = Ulcerogenic activity in albino rat assessed as damage of gastric mucosa surface epithelium at 10 to 50 mg/kg, po measured after 6 hrs by H and E staining based light microscopic assay; type: toxicity, organism-based; conditions: in vivo
Rattus norvegicus [10] = experiment: Anti-inflammatory activity in albino rat assessed as inhibition of carrageenan-induced paw edema at 28 uM/kg, ip measured at 3 hrs by calliper method relative to control; type: functional
Rattus norvegicus [11] = experiment: Antiinflammatory activity in albino rat assessed as reduction in carrageenan-induced paw edema by measuring thickness of right paw at 28 uM/kg, ip measured at 0.5 hrs by calliper method (reference value: 7.33 +/- 0.17 cm); type: functional
Rattus norvegicus [12] = experiment: Anti-inflammatory activity in albino rat assessed as inhibition of carrageenan-induced paw edema at 28 uM/kg, ip measured at 2 hrs by calliper method relative to control; type: functional
Rattus norvegicus [13] = experiment: Antiinflammatory activity in albino rat assessed as reduction in carrageenan-induced paw edema by measuring thickness of right paw at 28 uM/kg, ip measured at 3 hrs by calliper method (reference value: 7.83 +/- 0.33 cm); type: functional
Rattus norvegicus [14] = experiment: Antiinflammatory activity in albino rat assessed as reduction in carrageenan-induced paw edema by measuring thickness of right paw at 28 uM/kg, ip measured immediately by calliper method (reference value: 6.83 +/-0.17 cm); type: functional
Rattus norvegicus [15] = experiment: Antiinflammatory activity in albino rat assessed as reduction in carrageenan-induced paw edema by measuring thickness of right paw at 28 uM/kg, ip measured at 1 hr by calliper method (reference value: 7.33 +/- 0.17 cm); type: functional
[16] = Ulcerogenic activity in albino rat assessed as congestion of blood vessel at 10 to 50 mg/kg, po measured after 6 hrs by H and E staining based light microscopic assay; type: toxicity, organism-based; conditions: in vivo
Rattus norvegicus [17] = experiment: Anti-inflammatory activity in albino rat assessed as inhibition of carrageenan-induced paw edema at 28 uM/kg, ip measured at 4 hrs by calliper method relative to control; type: functional
[18] = molecular target: T2, Prostaglandin G/H synthase 2 (Homo sapiens, UniProt P35354); experiment: Inhibition of COX2 (unknown origin)
T2 sequence (P35354 whole entry): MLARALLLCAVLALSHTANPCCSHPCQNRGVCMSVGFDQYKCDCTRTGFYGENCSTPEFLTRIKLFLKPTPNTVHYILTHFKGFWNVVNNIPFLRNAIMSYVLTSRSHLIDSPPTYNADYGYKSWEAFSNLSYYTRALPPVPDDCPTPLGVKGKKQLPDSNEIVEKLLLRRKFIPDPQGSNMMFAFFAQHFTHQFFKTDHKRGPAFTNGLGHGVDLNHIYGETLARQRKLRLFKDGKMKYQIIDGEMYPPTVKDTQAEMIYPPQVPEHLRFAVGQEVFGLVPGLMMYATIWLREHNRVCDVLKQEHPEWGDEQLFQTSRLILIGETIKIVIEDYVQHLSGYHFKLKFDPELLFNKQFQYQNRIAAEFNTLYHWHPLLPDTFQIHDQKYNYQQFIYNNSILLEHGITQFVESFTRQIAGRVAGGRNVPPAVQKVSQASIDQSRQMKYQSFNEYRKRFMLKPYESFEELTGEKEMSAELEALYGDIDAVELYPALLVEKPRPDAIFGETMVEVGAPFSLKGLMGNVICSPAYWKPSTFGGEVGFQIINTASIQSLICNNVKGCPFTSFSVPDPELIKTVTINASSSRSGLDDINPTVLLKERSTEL

[19] = molecular target: Prostaglandin G/H synthase 1 (Homo sapiens, UniProt P23219); experiment: Inhibition of human COX1 expressed in CHO cells assessed as reduction in arachidonic acid-stimulated PGE2 production; type: cell-based
Sequence of Prostaglandin G/H synthase 1 (Homo sapiens, UniProt P23219) (P23219 whole entry): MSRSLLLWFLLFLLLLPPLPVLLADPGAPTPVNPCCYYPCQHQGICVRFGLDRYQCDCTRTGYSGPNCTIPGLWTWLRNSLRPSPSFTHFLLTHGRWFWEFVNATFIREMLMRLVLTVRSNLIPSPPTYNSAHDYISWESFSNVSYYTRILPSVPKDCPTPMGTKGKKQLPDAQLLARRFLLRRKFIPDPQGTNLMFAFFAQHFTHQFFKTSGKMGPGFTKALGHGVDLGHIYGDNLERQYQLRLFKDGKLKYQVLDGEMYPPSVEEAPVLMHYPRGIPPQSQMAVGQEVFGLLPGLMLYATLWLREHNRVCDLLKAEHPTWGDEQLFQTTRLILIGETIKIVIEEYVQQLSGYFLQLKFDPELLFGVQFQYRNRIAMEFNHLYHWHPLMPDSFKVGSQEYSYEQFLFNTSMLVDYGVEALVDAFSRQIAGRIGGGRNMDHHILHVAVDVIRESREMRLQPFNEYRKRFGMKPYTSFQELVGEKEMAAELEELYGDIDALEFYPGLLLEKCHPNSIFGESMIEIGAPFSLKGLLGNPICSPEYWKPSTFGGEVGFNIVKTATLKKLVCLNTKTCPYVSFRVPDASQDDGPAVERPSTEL

Rattus norvegicus [20] = experiment: Anti-inflammatory activity in albino rat assessed as inhibition of carrageenan-induced paw edema at 28 uM/kg, ip measured at 3 hrs by calliper method relative to indomethacin; type: functional; set-up: scale not given: the % may be the effect or the level left
Rattus norvegicus [21] = experiment: Anti-inflammatory activity in albino rat assessed as inhibition of carrageenan-induced paw edema at 28 uM/kg, ip measured at 4 hrs by calliper method relative to indomethacin; type: functional; set-up: scale not given: the % may be the effect or the level left
[22] = Ulcerogenic activity in albino rat assessed as effect on gastric mucosa membrane at 10 to 50 mg/kg, po measured after 6 hrs by H and E staining based light microscopic assay; type: toxicity, organism-based; conditions: in vivo

## O=c1c(O)c(-c2ccc(O)c(O)c2)oc2cc(O)cc(O)c12 [QUERCETIN]
[1]
  IC50: 3.34 µM

## CCn1c(-n2cc(/C=N/N=c3\scc(-c4ccc(Br)cc4)n3-c3ccccc3)c(-c3ccc(OC)cc3)n2)nc2c1c(=O)n(C)c(=O)n2C
[1]
  IC50: 1.82 µM

## CSc1nc2ccccc2n1-c1csc(NC(=O)c2ccc(C)cc2)n1
[1]
  IC50: 4.96 µM
[2]
  IC50: 6.23 µM

## COc1ccc2c(c1)c(CC(=O)O)c(C)n2C(=O)c1ccc(Cl)cc1 [INDOMETHACIN]
Rattus norvegicus [3]
  inhibition (INH): 34.7%
[4]
  Activity: Toxic
[5]
  Activity: Toxic
Rattus norvegicus [6]
  Activity: 4.67 cm
Rattus norvegicus [7]
  inhibition (INH): 54.17%
Rattus norvegicus [8]
  Activity: 4.17 cm
[9]
  Activity: Toxic
Rattus norvegicus [10]
  inhibition (INH): 69.37%
Rattus norvegicus [11]
  Activity: 5.83 cm
Rattus norvegicus [12]
  inhibition (INH): 63.7%
Rattus norvegicus [13]
  Activity: 4.5 cm
Rattus norvegicus [14]
  Activity: 7.17 cm
Rattus norvegicus [15]
  Activity: 5 cm
[16]
  Activity: Toxic
Rattus norvegicus [17]
  inhibition (INH): 78.83%

## CSc1nc2ccccc2n1-c1csc(NC(=O)c2ccccc2)n1
[1]
  IC50: 4.12 µM
[2]
  IC50: 5.33 µM

## Fc1ccc(-c2nnc(Cn3c(CN4CCCCC4)nc4ccccc43)o2)cc1
[18]
  IC50: 0.06 to 0.81 µM

## CS(=O)(=O)c1ccc(-c2c(-c3ccccc3)nc3sccn23)cc1
[19]
  IC50: > 50 µM

## CSc1nc2ccccc2n1-c1csc(NC/C(C)=N/NC(=S)Nc2ccccc2)n1
[1]
  IC50: 2.98 µM
Rattus norvegicus [3]
  inhibition (INH): 38.43%
Rattus norvegicus [6]
  Activity: 4.67 cm
Rattus norvegicus [20]
  Activity: 102.31%
Rattus norvegicus [7]
  inhibition (INH): 53.73%
Rattus norvegicus [8]
  Activity: 5.5 cm
Rattus norvegicus [10]
  inhibition (INH): 70.97%
Rattus norvegicus [11]
  Activity: 5.67 cm
Rattus norvegicus [12]
  inhibition (INH): 64.1%
Rattus norvegicus [13]
  Activity: 4.83 cm
Rattus norvegicus [14]
  Activity: 7.33 cm
[2]
  IC50: 10.7 µM
Rattus norvegicus [15]
  Activity: 5 cm
Rattus norvegicus [17]
  inhibition (INH): 68.8%
Rattus norvegicus [21]
  Activity: 87.28%

## CSc1nc2ccccc2n1-c1csc(NCC(=O)c2ccc(Cl)cc2)n1
[1]
  IC50: 4.15 µM
[2]
  IC50: 8.14 µM

## CSc1nc2ccccc2n1-c1csc(NC/C(C)=N/N=c2\scc(-c3ccc(Cl)cc3)n2-c2ccccc2)n1
[1]
  IC50: 1.67 µM
Rattus norvegicus [3]
  inhibition (INH): 22.67%
Rattus norvegicus [6]
  Activity: 5 cm
Rattus norvegicus [20]
  Activity: 109.08%
Rattus norvegicus [7]
  inhibition (INH): 46.27%
Rattus norvegicus [8]
  Activity: 5.67 cm
Rattus norvegicus [10]
  inhibition (INH): 75.67%
Rattus norvegicus [11]
  Activity: 6.33 cm
Rattus norvegicus [12]
  inhibition (INH): 56.67%
Rattus norvegicus [13]
  Activity: 4.67 cm
Rattus norvegicus [14]
  Activity: 7.17 cm
[2]
  IC50: 13.2 µM
Rattus norvegicus [15]
  Activity: 5.33 cm
Rattus norvegicus [21]
  Activity: 93.2%

## CSc1nc2ccccc2n1-c1csc(NC(=O)c2ccc(Cl)cc2)n1
[1]
  IC50: 5.11 µM
[2]
  IC50: 7.11 µM

## CSc1nc2ccccc2n1-c1csc(NC/C(C)=N/N=c2\scc(-c3ccccc3)n2-c2ccccc2)n1
[1]
  IC50: 1.85 µM
[2]
  IC50: 12.4 µM

## O=[N+]([O-])c1ccc(-c2nnc(Cn3c(CN4CCCCC4)nc4ccccc43)o2)cc1
[18]
  IC50: 0.06 to 0.81 µM

## CSc1nc2ccccc2n1-c1csc(NC/C(C)=N/N=C2\SCC(=O)N2c2ccccc2)n1
[1]
  IC50: 1.96 µM
[22]
  Activity: Non-Toxic
Rattus norvegicus [3]
  inhibition (INH): 38.4%
Rattus norvegicus [6]
  Activity: 4.17 cm
Rattus norvegicus [20]
  Activity: 119.4%
Rattus norvegicus [7]
  inhibition (INH): 61.6%
Rattus norvegicus [8]
  Activity: 4.5 cm
Rattus norvegicus [10]
  inhibition (INH): 82.83%
Rattus norvegicus [11]
  Activity: 5.67 cm
Rattus norvegicus [12]
  inhibition (INH): 74.83%
Rattus norvegicus [13]
  Activity: 3.83 cm
Rattus norvegicus [14]
  Activity: 7 cm
[2]
  IC50: 10.6 µM
Rattus norvegicus [15]
  Activity: 4.67 cm
[16]
  Activity: Toxic
Rattus norvegicus [17]
  inhibition (INH): 80.57%
Rattus norvegicus [21]
  Activity: 102.21%

## CSc1nc2ccccc2n1-c1csc(N)n1
[1]
  IC50: 6.56 µM
[2]
  IC50: 4.17 µM

## O=C1N/C(=N\c2nnc(-c3ccc(O)cc3)s2)S/C1=C\c1ccc(Cl)c(Cl)c1
[1]
  IC50: 11.9 µM

## Clc1ccc(-c2nnc(Cn3c(CN4CCCCC4)nc4ccccc43)o2)cc1
[18]
  IC50: 0.06 to 0.81 µM

## CSc1nc2ccccc2n1-c1csc(=N)n1CC(=O)c1ccccc1
[1]
  IC50: 3.98 µM
[2]
  IC50: 9.84 µM

## CSc1nc2ccccc2n1-c1csc(NCC(C)=O)n1
[1]
  IC50: 2.93 µM
[2]
  IC50: 11.7 µM

## CSc1nc2ccccc2n1-c1csc2nc(-c3ccccc3)cn12
[1]
  IC50: 5.46 µM
[2]
  IC50: 5.97 µM

## CCn1c(-n2cc(/C=N/N=C3/NC(=O)CS3)c(-c3ccc(OC)cc3)n2)nc2c1c(=O)n(C)c(=O)n2C
[1]
  IC50: 1.98 µM

## CSc1nc2ccccc2n1-c1csc(NC/C(C)=N/N=c2\scc(-c3ccc(C)cc3)n2-c2ccccc2)n1
[1]
  IC50: 2.14 µM
[2]
  IC50: 13.2 µM

## Fc1ccccc1-c1nnc(Cn2c(CN3CCCCC3)nc3ccccc32)o1
[18]
  IC50: 0.06 to 0.81 µM

## CCn1c(-n2cc(/C=N/N=c3\[nH]c(-c4ccc(Br)cc4)cs3)c(-c3ccc(OC)cc3)n2)nc2c1c(=O)n(C)c(=O)n2C
[1]
  IC50: 1.76 µM
